Reference: patent US20080039442A1, “Compounds With Kv4 Ion Channel Activity” (Devgen NV, priority 2004, published 2008)
pIC50: −log10 of the molar value.

Tests used:
isolated rat left atria = experiment: Ex-vivo functional refractory period in isolated rat left atria; details: conc 10^−5 mol/l
Text: (§1) The compounds were checked for their effect on the force of contraction, stimulation threshold and for the Functional Refractory Period (FRP) in isolated rat left atria (Rat LA). Rat left atria functionally express the Kv4.3 ion channel, producing the Ito current of the action potential. […] The guinea pig action potential is dominated by hERG like ion channels for the refractory currents. Consequently, activity of hERG channels in vivo should be seen in GP papillary muscle preparations.
Left atria were mounted vertically in a two-chambered organ bath containing 100 ml of buffer solution (in mM: NaH2PO4 0.6, MgSO4 0.6, KCl 4.7, NaHCO3 25, glucose 4.5, NaCl 120, CaCl2 2.4). […] The isometric force of the preparations was measured by force transducers, connected to amplifiers, documented by a pen recorder and fed into a computer for evaluation. Force of contraction (FC), threshold stimulus (TS) and the functional refractory period (FRP) were measured at baseline (pre), 20 min after addition of compound, and after washout at the end of the experiment. Threshold stimulus, representing excitability of the tissue, was assessed by varying the voltage applied for electrical stimulation. […] The functional refractory period, representing the time needed for repolarization, was assessed by applying extra stimuli at varying time intervals from the preceding regular pacing stimulus. […]

hERG potassium channel = hERG potassium channel (Homo sapiens, UniProt Q12809)
Text: For this experiment HEK 293 T-REx HERG cells (#23) were used. This cell line made by IonGate is characterized by the inducible expression of the hERG gene. The T-REx™ System (Invitrogen, Karlsruhe, Germany) is a tetracycline-regulated mammalian expression system that uses regulatory elements from the E. coli Tn10-encoded tetracycline (Tet) resistance operon. In the absence of Tet the expression is repressed. Tetracycline regulation in the T-REx™ System is based on the binding of tetracycline to the Tet repressor and derepression of the promoter controlling expression of the hERG gene. Addition of Tet to the cell culture media results in expression of the hERG potassium channel.
To construct the HEK 293 T-REx HERG cell line, the hERG gene was ligated into the inducible expression vector pcDNA4/TO (→pc4TO-HERG) and transfected into HEK 293 T-REx cells (this cell line stably expresses the Tet repressor and was purchased at Invitrogen). Stable cell clones were isolated after selection with Blasticidin (5 μg/ml) and Zeocin™ (300 μg/ml). The clones were electrophysiological characterized after induction with 1 μg/ml Tet.
Experiments were performed using the patch clamp set-up. Technical equipment needed for manipulation of the cells was placed on a vibration-isolated table and shielded with a Faraday cage to minimize electrical noise. The amplifier and control system were placed in a rack outside the Faraday cage. The system consisted of an EPC9 or EPC10 patch clamp amplifier (HEKA, Lambrecht, Germany), and the perfusion system DADVC8 (ALA Scientific, New York, USA) controlled by the Pulse software package (HEKA, Lambrecht, Germany) installed on a personal computer.
The cells used for this experiment were kept in continuous culture under standard conditions (37° C., air supplemented with 5% CO2). The HEK 293 T-REx HERG cells were kept in minimal essential medium (MEM) supplemented with 100 U/ml Penicillin, 100 μg/ml Streptomycin, 10% fetal calf serum (FCS), 1% non-essential amino acids (NEAA), 2.5 μg/ml amphotericin, 300 μg/ml Zeocin™ and 5 μg/ml Blasticidin. Cells were passed every 3-4 days after detachment using a Trypsin solution. The quality of the cultured cells was guaranteed by vitality and contamination tests.
At least 18 hours prior to electrophysiological experiments the cells were detached by application of iced PBS (phosphate buffered saline) or Trypsin and replated on cover slips. 1 μg/ml Tet was added to the cells to induce hERG expression.
Activity of the cardiac hERG channel was investigated using the patch clamp technique in its whole cell mode. This means that the current needed for clamping the whole cell expressing the K^+-channel protein to a specific potential was measured. The pipettes used for patch clamping were made of borosilicate glass. Measurements were performed at room temperature (20-25° C.). In each experiment (i.e. each cell) only one concentration of the compound was investigated—no cumulative dosages were performed. Each cell acted as its own control. The effect of the compounds on hERG mediated currents was investigated at one concentration (10 μM) with two replicates each (c=1, n=2).
Between voltage pulses the cell was clamped to a holding potential of −80 mV (inside).
(b) and (c) were used to characterize the properties of the hERG channel and to check the quality of the individual patch clamp experiment (voltage control). Each test protocol consisted of 6 segments.

[1] = tested on: isolated guinea pig right ventricular papillary muscle; experiment: Ex-vivo functional refractory period in isolated guinea pig papillary muscle; details: conc 10^−5 mol/l
Text: as §1
Method: Rat LA (Same Method Applies to GP Pap. Muscle)
Left atria were mounted vertically in a two-chambered organ bath containing 100 ml of buffer solution (in mM: NaH2PO4 0.6, MgSO4 0.6, KCl 4.7, NaHCO3 25, glucose 4.5, NaCl 120, CaCl2 2.4). The solution was saturated with and circulated by a gas mixture containing 95% O2 and 5% CO2. The temperature was kept constant at 30° C. […] The isometric force of the preparations was measured by force transducers, connected to amplifiers, documented by a pen recorder and fed into a computer for evaluation. Force of contraction (FC), threshold stimulus (TS) and the functional refractory period (FRP) were measured at baseline (pre), 20 min after addition of compound, and after washout at the end of the experiment. Threshold stimulus, representing excitability of the tissue, was assessed by varying the voltage applied for electrical stimulation. […]

[2] = tested on: conscious telemetric mice; experiment: Telemetric ECG in conscious mice, consecutive i.p. dosing; assay type: in vivo, mice (NRMI)
Method: Male mice (NRMI) were anesthetized with a gas mixture of isoflurane, nitrous oxide and oxigen. Leads connected to a telemetry transmitter (TA10EA-F20, DSI, St. Paul, USA) were fixed by suture in the xiphoid and ventral neck region. The telemetry transmitter was placed under the skin on the back. Wounds were closed in layers and the animals were allowed to recover for at least 1 week.
On the day of the experiment the animals receive consecutive doses of vehicle i.p. at 60 min dosing intervals. ECG tracings (12 s duration) was recorded using the Data Sciences A.R.T. system. After completion of the experiment ECGs were analyzed automatically by Data Sciences ECG software (DSI, St. Paul, USA). QT and QRS intervals were measured manually in the stored ECGs. QTc was calculated from the QT interval and the corresponding heart rate using Bazett's formula. Heart rate was taken from the online analysis, given by the DSI Labpro and DSI A.R.T. systems (DSI, St. Paul, USA). Finally, ECG intervals were transferred to an Excel spreadsheet, checked for plausibility, and converted into 15 min averages.

Sequence of hERG potassium channel (Q12809 whole entry): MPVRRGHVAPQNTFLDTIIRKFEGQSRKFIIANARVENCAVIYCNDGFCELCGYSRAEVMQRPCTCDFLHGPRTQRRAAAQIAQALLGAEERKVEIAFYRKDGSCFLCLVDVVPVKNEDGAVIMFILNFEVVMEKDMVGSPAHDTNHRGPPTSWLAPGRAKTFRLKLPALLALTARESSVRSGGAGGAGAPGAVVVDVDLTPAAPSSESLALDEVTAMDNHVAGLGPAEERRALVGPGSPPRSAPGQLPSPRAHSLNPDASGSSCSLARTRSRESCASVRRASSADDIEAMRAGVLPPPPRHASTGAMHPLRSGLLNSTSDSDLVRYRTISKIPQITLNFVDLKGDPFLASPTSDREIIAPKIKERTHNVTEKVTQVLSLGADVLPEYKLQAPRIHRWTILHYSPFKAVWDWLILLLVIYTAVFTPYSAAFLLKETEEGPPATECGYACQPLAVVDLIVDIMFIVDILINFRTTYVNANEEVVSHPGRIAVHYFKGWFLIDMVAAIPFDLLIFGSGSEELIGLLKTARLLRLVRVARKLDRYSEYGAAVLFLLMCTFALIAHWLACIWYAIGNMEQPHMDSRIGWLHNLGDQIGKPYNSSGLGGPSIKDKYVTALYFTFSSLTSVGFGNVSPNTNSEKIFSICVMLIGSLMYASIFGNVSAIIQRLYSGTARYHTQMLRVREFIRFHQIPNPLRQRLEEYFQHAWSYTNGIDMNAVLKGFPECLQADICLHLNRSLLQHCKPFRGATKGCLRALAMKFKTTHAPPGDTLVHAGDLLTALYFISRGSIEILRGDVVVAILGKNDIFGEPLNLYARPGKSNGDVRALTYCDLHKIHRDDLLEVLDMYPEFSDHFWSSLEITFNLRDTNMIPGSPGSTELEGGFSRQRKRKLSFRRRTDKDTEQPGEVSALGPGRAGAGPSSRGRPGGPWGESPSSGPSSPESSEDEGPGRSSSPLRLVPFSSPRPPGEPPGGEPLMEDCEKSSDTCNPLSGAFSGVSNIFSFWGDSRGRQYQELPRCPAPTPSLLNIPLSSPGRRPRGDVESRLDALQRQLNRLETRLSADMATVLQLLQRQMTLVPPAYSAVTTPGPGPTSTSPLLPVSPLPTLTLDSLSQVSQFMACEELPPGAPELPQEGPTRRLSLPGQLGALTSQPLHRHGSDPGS

5-chloro-benzofuran-2- carboxylic acid 2,4- dimethoxy- benzylamide [Compound 2]
dFRP Rat (isolated rat left atria): 17 ms | pIC50 (hERG potassium channel): 4.78 | Ratio hERG/Kv4.3 (hERG potassium channel): 9.6 | dFRP Guinea Pig [1]: 0 ms | maximum prolongation of QTc ([2]; 15 μmol/kg i.p., highest dose tested, Bazett, n=5): 33 ms | maximum prolongation of QT ([2]; 15 μmol/kg i.p., highest dose tested, n=5): 12 ms | Heart rate (result in words) ([2]; 3-15 μmol/kg i.p.): minor and not significant decrease | Locomotor activity (result in words) ([2]; 3-15 μmol/kg i.p.): reproducible rise after each of the subsequent injections | PQ and QRS (result in words) ([2]; 3-15 μmol/kg i.p.): did not show dose-dependent changes
